Assay results: patent US6462055B2, “Alpha-methylbenzyl-containing thiourea inhibitors of herpes viruses containing a phenylenediamine group” (Wyeth, priority 1998, dated 2002)
Values after ≈ are worked out from the molar mass of the structure shown.

Key:
HSV-1 = assay: HSV Antiviral (ELISA) Assay in Vero cells; assay type: cell-based, herpes simplex virus type 1; conditions: HSV-1, Vero cells; for IC50: Human alphaherpesvirus 1, read-out: IC50 (ug/ml) HSV
Procedure: Vero cells (ATCC #CCL-81) are plated on 96-well tissue culture plates at 3.5×10^4 cells per 100 μl tissue culture DMEM (Dulbeccos modified Eagle media) supplemented with 2% fetal bovine serum (FBS) in each well. After overnight incubation @ 37° C. (in 5% CO2) and 30 minutes prior to infection with HSV-1 (multiplicity of infection equal to 0.006), cells are either untreated, or treated with test compound (multiple concentrations) or reference standard drug control. After approximately 24 hours post-infection incubation @ 37° C. (in 5% CO2), cells are fixed for ELISA assay. The primary antibody is murine anti-HSV glycoprotein D monoclonal primary antibody and the secondary antibody is goat anti-mouse IgG linked to β-galactosidase. Thus the extent of viral replication is determined by assessing β-galactosidase activity by quantifying the generation of the 4-methyl umbelliferone fluorescent cleavage product after addition of the methyl umbelliferyl-β-D-galactoside (Sigma #M1633) substrate on a microfluorimeter (365 nm for excitation and 450 nm for emission). Antiviral activity (IC50) of the test compound is determined by comparing the flourescence obtained in absence of compound to that obtained in the presence of compound.

VZV strain Ellen = assay: VZV Antiviral (ELISA) Assay in human foreskin fibroblast cells; assay type: cell-based, varicella-zoster virus; conditions: for IC50 / inhibition at 10 µg/mL: Human alphaherpesvirus 3, Fibroblast; for IC50: read-out: IC50 (ug/ml) VZV; for inhibition at 10 µg/mL: read-out: % inhibition 10 ug/ml VZV, 10 ug/ml
Procedure: For the generation of stock VZV to be used in the assay, VZV strain Ellen (ATCC #VR-1367) is used to infect human foreskin fibroblast (HFF) cells at low multiplicity (less than 0.1) and incubated overnight at 37° C. in 5% CO2. After the overnight incubation, the mixture of uninfected and VZV-infected HFF infected cells are then harvested and added to each well of 96-well plates (3.5×10^4 cells in 100 μl DMEM supplemented with 2% FBS) which contain test compound or the reference standard drug control (in 100 μl DMEM supplemented with 2% FBS per well). These cells are incubated for three days at 37° C. in 5% CO2, then fixed for ELISA assay. The primary antibody is murine anti-VZV glycoprotein II monoclonal antibody (Applied Biosystems, Inc. #13-145-100) and the secondary antibody is goat anti-mouse IgG linked to β-galactosidase. Thus the extent of viral replication is determined by assessing β-galactosidase activity by quantifying the generation of the 4-methyl umbelliferone fluorescent cleavage product after addition of the methyl umbelliferyl-β-D-galactoside (Sigma #M1633) substrate on a microfluorimeter (365 nm for excitation and 450 nm for emission). Antiviral activity (IC50) of the test compound is determined by comparing the flourescence obtained in absence of compound to that obtained in the presence of compound.

Compound | IC50 (ug/ml) VZV (VZV strain Ellen) [µg/mL] | IC50 (VZV strain Ellen) [µg/mL] | other results
COc1cc(OC)c(NC(=S)Nc2ccc(NC(=O)c3cccc(N(C)C)c3)cc2)cc1Cl [Example 136] | >10 | – | IC50 (ug/ml) HSV (HSV-1): 1 µg/mL (≈ 2.06 µM); % inhibition 10 ug/ml VZV (VZV strain Ellen): 40%
COc1cc(OC)c(NC(=S)Nc2ccc(NC(=O)c3cccc(NS(C)(=O)=O)c3)cc2)cc1Cl [Example 137] | >15 | – | % inhibition 10 ug/ml VZV (VZV strain Ellen): 72%
COc1cc(OC)c(NC(=S)Nc2ccc(NC(=O)c3ccc4ccccc4c3)cc2)cc1Cl [Example 156] | >10 | – | IC50 (ug/ml) HSV (HSV-1): 2 µg/mL (≈ 4.07 µM); % inhibition 10 ug/ml VZV (VZV strain Ellen): 17%
COc1cc(OC)c(NC(=S)Nc2ccc(NC(=O)c3ccccc3-c3ccccc3)cc2)cc1Cl [Example 182] | >10 | – | % inhibition 10 ug/ml VZV (VZV strain Ellen): 32%
COc1cc(OC)c(NC(=S)Nc2ccc(NC(=O)c3ccccc3CO)cc2)cc1Cl [Example 185] | >10 | – | IC50 (ug/ml) HSV (HSV-1): 3 µg/mL (≈ 6.36 µM); % inhibition 10 ug/ml VZV (VZV strain Ellen): 32%
CC(=O)Nc1ccc(NC(=S)Nc2ccc(NC(=O)c3ccccc3F)cc2)cc1Cl [Example 397] | >10 | – | IC50 (ug/ml) HSV (HSV-1): 5 µg/mL (≈ 10.9 µM); % inhibition 10 ug/ml VZV (VZV strain Ellen): 35%
Cc1cccc(NC(=S)Nc2ccc(NC(=O)c3ccccc3F)cc2)c1 [Example 432] | >10 | – | IC50 (ug/ml) HSV (HSV-1): 1.6 µg/mL (≈ 4.22 µM); % inhibition 10 ug/ml VZV (VZV strain Ellen): 0%
COc1cccc(NC(=S)Nc2ccc(NC(=O)c3ccccc3F)cc2)c1 [Example 487] | >10 | – | IC50 (ug/ml) HSV (HSV-1): 4 µg/mL (≈ 10.1 µM); % inhibition 10 ug/ml VZV (VZV strain Ellen): 48%
O=C(Nc1ccc(NC(=S)Nc2ccc3[nH]cnc3c2)cc1)c1ccccc1F [Example 496] | >10 | – | IC50 (ug/ml) HSV (HSV-1): >10 µg/mL; % inhibition 10 ug/ml VZV (VZV strain Ellen): 25%
Cc1nc2cc(NC(=S)Nc3ccc(NC(=O)c4ccccc4F)cc3)ccc2[nH]1 [Example 497] | >10 | – | IC50 (ug/ml) HSV (HSV-1): >10 µg/mL; % inhibition 10 ug/ml VZV (VZV strain Ellen): 10%
CCC(C)Cc1cc(NC(=S)Nc2ccc(NC(=O)c3ccccc3F)cc2)cc(C(F)(F)F)c1 (stereo not shown) [Example 577] | >7.5 | – | –
CC(C)Cc1cc(NC(=S)Nc2ccc(NC(=O)c3ccccc3F)cc2)cc(C(F)(F)F)c1 [Example 578] | >10 | – | –
O=C(Nc1ccc(NC(=S)NCc2cc(F)cc(F)c2)cc1)c1ccccc1F [Example 580] | >10 | – | –
O=C(Nc1ccc(NC(=S)NCc2cc(Cl)cc(Cl)c2)cc1)c1ccccc1F [Example 583] | 10 (≈ 22.3 µM) | – | –
O=C(Nc1ccc(NC(=S)NCc2cc(F)cc(C(F)(F)F)c2)cc1)c1ccccc1F [Example 586] | – | > 10 | –
O=C(Nc1ccc(NC(=S)NCc2ccc(N3CCCCC3)c(C(F)(F)F)c2)cc1)c1ccccc1F [Example 616] | >10 | – | –
O=C(Nc1ccc(NC(=S)NCc2ccc(F)c(C(F)(F)F)c2)cc1)c1ccccc1F [Example 623] | – | > 10 | –
O=C(Nc1ccc(NC(=S)NCCOc2ccccc2)cc1)c1ccccc1F [Example 625] | – | 4 (≈ 9.77 µM) | –
O=C(Nc1ccc(NC(=S)NCCc2ccccc2F)cc1)c1ccccc1F [Example 721] | – | – | IC50 (ug/ml) HSV (HSV-1): >10 µg/mL
CC(C)(C)c1ccc(CNC(=S)Nc2ccc(NC(=O)c3ccccc3F)cc2)cc1 [Example 724] | – | – | IC50 (ug/ml) HSV (HSV-1): >10 µg/mL
Cc1cc(C)cc(CNC(=S)Nc2ccc(NC(=O)c3ccccc3F)cc2)c1 [Example 725] | – | – | IC50 (ug/ml) HSV (HSV-1): >10 µg/mL
CC(C)(NC(=S)Nc1ccc(NC(=O)c2ccccc2F)cc1)c1ccccc1 [Example 727] | – | – | IC50 (ug/ml) HSV (HSV-1): >10 µg/mL

Compound | IC50 (ug/ml) VZV (VZV strain Ellen) [µg/mL] | IC50 (VZV strain Ellen) [µg/mL] | other results
CC(NC(=S)Nc1ccc(NC(=O)c2ccccc2F)cc1)c1cccc(C(F)(F)F)c1 (stereo not shown) [Example 786] | – | > 7.5 | IC50 (HSV-1): > 10 µg/mL
CC(NC(=S)Nc1ccc(NC(=O)c2ccccc2F)cc1)c1ccc(C(F)(F)F)cc1 (stereo not shown) [Example 787] | – | > 7.5 | IC50 (HSV-1): > 10 µg/mL
CC(NC(=S)Nc1ccc(NC(=O)c2ccccc2F)cc1)c1cccc(C#N)c1 (stereo not shown) [Example 791] | – | 7 (≈ 16.7 µM) | IC50 (HSV-1): > 10 µg/mL
CCCOc1ccc(NC(=S)Nc2ccc(NC(=O)c3ccccc3F)cc2)cc1Cl [Example 807] | 0.9 (≈ 1.97 µM) | – | IC50 (ug/ml) HSV (HSV-1): >10 µg/mL
COc1ccc(NC(=S)Nc2ccc(NC(=O)c3ccccc3F)cc2)cc1I [Example 810] | – | > 7.5 | –
CC(NC(=S)Nc1ccc(NC(=O)c2ccccc2I)cc1)c1ccc(F)cc1 (stereo not shown) [Example 812] | – | 3.4 (≈ 6.55 µM) | –
COc1ccc(NC(=S)Nc2ccc(NC(=O)c3ccccc3)cc2)cc1Cl [Example 817, N-{4-[3-(3-Chloro-4-methoxy-phenyl)-thioureido]-phenyl}-benzamide] | – | 12 (≈ 29.1 µM) | IC50 (HSV-1): 1 µg/mL (≈ 2.43 µM); inhibition at 10 µg/mL (VZV strain Ellen): 66%
COc1ccc(NC(=S)Nc2ccc(NC(=O)c3ccccc3OC)cc2)cc1Cl [Example 818, N-{4-[3-(3-Chloro-4-methoxy-phenyl)-thioureido]-phenyl}-2-methoxy-benzamide] | – | > 10 | inhibition at 10 µg/mL (VZV strain Ellen): 32%
COc1ccc(NC(=S)Nc2ccc(NC(=O)c3cccc(F)c3)cc2)cc1Cl [Example 822, N-{4-[3-(3-Chloro-4-methoxy-phenyl)-thioureido]-phenyl}-3-fluoro-benzamide] | – | > 10 | inhibition at 10 µg/mL (VZV strain Ellen): 0%
COc1ccc(NC(=S)Nc2ccc(NC(=O)c3ccc(F)cc3)cc2)cc1Cl [Example 823, N-{4-[3-(3-Chloro-4-methoxy-phenyl)-thioureido]-phenyl}-4-fluoro-benzamide] | – | > 10 | inhibition at 10 µg/mL (VZV strain Ellen): 7%
COc1cc(OC)c(NC(=S)Nc2ccc(NC(=O)c3ccccc3C)cc2)cc1Br [Example 829, N-{4-[3-(5-Bromo-2,4-dimethoxy-phenyl)-thioureido]-phenyl}-2-methyl-benzamide] | – | > 15 | inhibition at 10 µg/mL (VZV strain Ellen): 50%
CSc1ccc(NC(=S)Nc2ccc(NC(=O)c3c(F)cccc3F)cc2)cc1Cl [Example 848, N-{4-[3-(3-Chloro-4-methylsulfanyl-phenyl)-thioureido]-phenyl}-2,6-difluoro-benzamide] | – | 1.3 (≈ 2.8 µM) | inhibition at 10 µg/mL (VZV strain Ellen): 101%
CC(C)(C)c1cccc(NC(=S)Nc2ccc(NC(=O)c3ccccc3F)cc2)c1 [Example 869, N-{4-[3-(3-tert-Butyl-phenyl)-thioureido]-phenyl}-2-fluoro-benzamide] | – | 3 (≈ 7.12 µM) | inhibition at 10 µg/mL (VZV strain Ellen): 77%
O=C(Nc1ccc(NC(=S)Nc2ccc(C(F)(F)F)c(Cl)c2)cc1)c1ccccc1F [Example 911, N-{4-[3-(3-Chloro-4-trifluoromethyl-phenyl)-thioureido]-phenyl}-2-fluoro-benzamide] | – | > 10 | inhibition at 10 µg/mL (VZV strain Ellen): 38%
O=C(Nc1ccc(NC(=S)Nc2ccc(I)c(Cl)c2)cc1)c1ccccc1F [Example 916, N-{4-[3-(3-Chloro-4-iodo-phenyl)-thioureido]-phenyl}-2-fluoro-benzamide] | – | > 10 | inhibition at 10 µg/mL (VZV strain Ellen): 30%
CC(NC(=S)Nc1ccc(NC(=O)c2ccnc3ccccc23)cc1)c1ccc(F)cc1 (stereo not shown) [Example 989, Quinoline-4-carboxylic acid (4-{3-[1-(4-fluoro-phenyl)-ethyl]-thioureido}-phenyl)-amide] | – | 3 (≈ 6.75 µM) | –
CC(NC(=S)Nc1ccc(NC(=O)c2ccc3ncccc3c2)cc1)c1ccc(F)cc1 (stereo not shown) [Example 990, Quinoline-6-carboxylic acid (4-{3-[1-(4-fluoro-phenyl)-ethyl]-thioureido}-phenyl)-amide] | – | 3.5 (≈ 7.87 µM) | –
CC(NC(=S)Nc1ccc(NC(=O)c2ccccc2C#N)cc1)c1ccc(F)cc1 (stereo not shown) [Example 993, 2-Cyano-N-(4-{3-[1-(4-fluoro-phenyl)-ethyl]-thioureido}-phenyl)-benzamide] | – | 2.7 (≈ 6.45 µM) | –
COc1cc(OCC(F)(F)F)ccc1NC(=S)Nc1ccc(NC(=O)c2ccccc2F)cc1 [Example 1006, 2-Fluoro-N-(4-{3-[2-methoxy-4-(2,2,2-trifluoro-ethoxy)-phenyl]-thioureido}-phenyl)-benzamide] | – | 11 (≈ 22.3 µM) | –
CC(NC(=S)Nc1ccc(NC(=O)c2ccccc2F)cc1)c1ccc(C(F)(F)F)cc1F (stereo not shown) [Example 1106] | – | > 7.5 | –
C[C@H](NC(=S)Nc1ccc(NC(=O)c2nccc3ccccc23)cc1)c1ccc(Cl)cc1 [Example 1109] | – | 0.03 (≈ 0.0651 µM) | –
CC(NC(=S)Nc1ccc(NC(=O)c2nccc3ccccc23)cc1)c1ccc(F)cc1 (stereo not shown) [Example 1110] | 0.05 (≈ 0.112 µM) | – | –
